This is an account of results in paper PMC5640650, “NatD promotes lung cancer progression by preventing histone H4 serine phosphorylation to activate Slug expression” (Nature Communications, 2017).

For data set [1], the system named is promoters of Zeb1, Zeb2, Twist1, and Snail. Briefly: ChIP assay on the promoters of Zeb1, Zeb2, Twist1, and Snail, H1299 cells. The settings on record: vs Scr. It is filed as cell-based, human. How it is done: ChIP assays were performed with H1299 cells in accordance with standard protocols. Normal rabbit IgG served as the control. ChIP samples were analyzed by quantitative real-time PCR using the FastStart Universal SYBR Green Master (Roche). A standard curve was prepared for each set of primers using serial titration of the input DNA. The percentage of ChIP DNA was calculated relative to the input DNA from primer-specific standard curves using the Rotor-Gene 6000 Series Software 1.7. The primer sequences for ChIP are listed in Supplementary Table 4. Antibodies used were: H4S1ph (Abcam; ab14723), H4K5ac (Millipore; CS204381), H4R3me2a (Active Motif; 39705), H4R3me2s (Abcam; ab5823), CK2α (Abcam; ab70774), H3K4me3 (Abcam; ab8580), and H3K27me3 (Abcam; ab6002).
Supplementary Figure 7. Knockdown of NatD has no effect on enrichment of H4S1ph on some EMT-related gene promoters. (a-d) ChIP analysis of the enrichment of Nt-ac-H4, H4S1ph, H3K4me3 and H3K27me3 on the promoter of Zeb1(a), Zeb2(b), Twist1(c), and Snail (d) in Scr and NatD-KD H1299 cells. IgG served as a negative control. Results are shown as mean ± s.d. of three independent experiments; two-tailed Student’s t-test, **P<0.01 or *P<0.05 compared to Scr […]
(1 picture or pasted object on this page, not shown here)

The test system of data set [2] is LLC cells. Kind of data set: Expression of EMT genes, LLC cells. Conditions: vs Scr. The class given is cell-based, murine. How it is done: Cellular proteins were extracted by RIPA lysis buffer at high salt concentration (420 mM NaCl), and western blot analysis was performed in accordance with standard protocols. Scans of enhanced chemiluminescence (ECL) films showing uncropped blots are presented in Supplementary Fig. 10. […]
Total RNA from tissue samples and cultured cells was extracted using TRIzol reagent (Invitrogen). cDNAs were synthesized with a HiScript 1st Strand cDNA Synthesis Kit (Vazyme Biotech, China). Quantitative RT-PCR was performed using a FastStart Universal SYBR Green Master (Roche) according to the manufacturer’s instructions in a Rotor-Gene 6000 (Corbett Research) in a final volume of 20 μl. […]
Representative blots from three independent experiments. […] (bottom) Cell migration and invasion expressed as a percentage of Scr control. […]
Results are shown as mean ± s.d. from 5 mice; two-tailed Student’s t-test, **P<0.01 compared to Scr control. (e) Quantitative real-time PCR analysis of mRNA levels of NatD and key EMT-related genes in Scr control and NatD-KD LLC cells normalized to GAPDH. […]

Take “NatD-KD2: Human NatD shRNA KD2: 5′-GGTTGAATGTCTCCATTGA-3′, lentiviral (shRNA lentiviral)”: in data set [1], the “enrichment of H4S1ph, H3K4me3, and H3K27me3 on Zeb1, Zeb2, Twist1, Snail promoters” value is “unchanged”; the “enrichment of Nt-ac-H4 on Zeb1, Zeb2, Twist1, Snail promoters” value was “reduced”. For the same substance, in data set [2], the “expression of E-cadherin” value is reported as “increased the expression”; the “expression of Slug, N-cadherin, and Vimentin” value is recorded as “decreased the expression”.
